Laboratory results published in ChEMBL document CHEMBL4417633, “Inhibitory polypeptides specific to WNT inhibitors” (2017).
The source made the active and inactive calls. The calls are words filed in the database; no cut-off is given here. Where a SMILES comes first, the peptide text is derived from it.

How the values were obtained:
[1] = molecular target: T1, Dickkopf WNT-signaling pathway inhibitor 1 (Rattus norvegicus) (UniProt A6I0Z0); assay: Inhibition of biotin-labeled rat recombinant DKK1 assessed as reduction in DKK1 interaction with LRP-6/Fc incubated overnight by chemiluminescence based Alpha-screen assay
T1 sequence (whole entry): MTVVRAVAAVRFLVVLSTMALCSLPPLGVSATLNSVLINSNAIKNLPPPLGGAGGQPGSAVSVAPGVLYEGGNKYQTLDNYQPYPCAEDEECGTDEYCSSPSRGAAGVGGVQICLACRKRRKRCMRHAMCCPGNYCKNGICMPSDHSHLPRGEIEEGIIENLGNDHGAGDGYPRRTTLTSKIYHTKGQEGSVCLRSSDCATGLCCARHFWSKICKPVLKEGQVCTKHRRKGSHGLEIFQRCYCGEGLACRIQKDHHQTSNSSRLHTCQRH

[2] = molecular target: T2, Dickkopf-related protein 1 (Homo sapiens) (UniProt O94907); assay: Inhibition of biotin-labeled human recombinant DKK1 assessed as reduction in DKK1 interaction with LRP-6/Fc incubated overnight by chemiluminescence based Alpha-screen assay
T2 sequence (whole entry): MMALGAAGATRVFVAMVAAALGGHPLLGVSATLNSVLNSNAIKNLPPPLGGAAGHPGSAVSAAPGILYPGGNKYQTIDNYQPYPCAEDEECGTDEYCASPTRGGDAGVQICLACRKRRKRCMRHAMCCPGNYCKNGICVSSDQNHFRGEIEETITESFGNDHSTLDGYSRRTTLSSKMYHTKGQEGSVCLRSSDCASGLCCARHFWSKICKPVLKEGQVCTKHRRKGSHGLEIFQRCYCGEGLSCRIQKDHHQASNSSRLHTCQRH

[3] = molecular target: T3, Dickkopf-related protein 1 (Homo sapiens, UniProt O94907); assay: Inhibition of human DKK1 in MC3T3E1/TetON-Wnt1/STF-Luc#5 cells assessed as DKK1 neutralizing activity by Wnt1-induced TCF/LEF luciferase reporter gene assay
T3 sequence (O94907 whole entry): T2 sequence (whole entry)

SMILES | inhibition [1] | inhibition [2] | IC50 [3]
CC[C@H](C)[C@H](NC(=O)[C@H](CS)NC(=O)[C@H](CC(=O)O)NC(=O)[C@@H]1CCCN1C(=O)[C@H](Cc1ccccc1)NC(=O)CNC(=O)[C@H](CC(=O)O)NC(=O)[C@H](CS)NC(=O)[C@H](CCCNC(=N)N)NC(=O)[C@H](Cc1c[nH]c2ccccc12)NC(=O)[C@H](CCC(=O)O)NC(=O)[C@H](CCSC)NC(=O)[C@@H]1CCCN1C(=O)[C@H](Cc1ccc(O)cc1)NC(=O)[C@H](CS)NC(=O)[C@H](Cc1cnc[nH]1)NC(=O)[C@@H]1CCCN1C(=O)[C@H](CC(C)C)NC(=O)[C@H](CC(N)=O)NC(=O)CNC(=O)[C@H](CS)NC(=O)[C@H](CCC(N)=O)NC(=O)[C@H](Cc1ccccc1)NC(=O)[C@H](Cc1ccc(O)cc1)NC(=O)[C@H](CO)NC(=O)[C@H](C)NC(=O)[C@@H]1CCCN1C(=O)[C@@H](N)CS)C(=O)N[C@@H](CC(=O)O)C(=O)NCC(=O)N[C@@H](CO)C(=O)N[C@@H](CC(=O)O)C(=O)N[C@@H](CCC(=O)O)C(=O)N[C@@H](CCCCN)C(=O)NCC(=O)N[C@@H](CS)C(=O)NCC(=O)NCC(=O)NCC(=O)NCC(=O)O (H-CPASYFQCGNLPHCYPMEWRCDGFPDCIDGSDEKGCGGGG-OH) | Active | Active | 0.8 to 3 nM
CC[C@H](C)[C@H](NC(=O)[C@H](CS)NC(=O)[C@H](CC(=O)O)NC(=O)[C@@H]1CCCN1C(=O)[C@H](Cc1ccccc1)NC(=O)CNC(=O)[C@H](CC(=O)O)NC(=O)[C@H](CS)NC(=O)[C@H](CCCNC(=N)N)NC(=O)[C@H](Cc1c[nH]c2ccccc12)NC(=O)[C@H](CCC(=O)O)NC(=O)[C@H](CCSC)NC(=O)[C@@H]1CCCN1C(=O)[C@H](Cc1ccc(O)cc1)NC(=O)[C@H](CS)NC(=O)[C@H](Cc1cnc[nH]1)NC(=O)[C@@H]1CCCN1C(=O)[C@H](Cc1cnc[nH]1)NC(=O)[C@H](CCCCN)NC(=O)[C@H](CCCNC(=N)N)NC(=O)[C@H](CS)NC(=O)[C@H](CCC(N)=O)NC(=O)[C@H](Cc1ccccc1)NC(=O)[C@H](Cc1ccc(O)cc1)NC(=O)[C@H](CO)NC(=O)[C@H](C)NC(=O)[C@@H]1CCCN1C(=O)[C@@H](N)CS)C(=O)N[C@@H](CC(=O)O)C(=O)NCC(=O)N[C@@H](CO)C(=O)N[C@@H](CC(=O)O)C(=O)N[C@@H](CCC(=O)O)C(=O)N[C@@H](CCC(=O)O)C(=O)N[C@@H](CCCNC(=N)N)C(=O)N[C@@H](CS)C(=O)NCC(=O)NCC(=O)NCC(=O)NCC(=O)O (H-CPASYFQCRKHPHCYPMEWRCDGFPDCIDGSDEERCGGGG-OH) | Active | Active | 0.8 to 3 nM
CC[C@H](C)[C@H](NC(=O)[C@H](CS)NC(=O)[C@H](CC(=O)O)NC(=O)[C@@H]1CCCN1C(=O)[C@H](Cc1ccccc1)NC(=O)CNC(=O)[C@H](CC(=O)O)NC(=O)[C@H](CS)NC(=O)[C@H](CCCNC(=N)N)NC(=O)[C@H](Cc1c[nH]c2ccccc12)NC(=O)[C@H](CCC(=O)O)NC(=O)[C@H](CCSC)NC(=O)[C@@H]1CCCN1C(=O)[C@H](Cc1ccc(O)cc1)NC(=O)[C@H](CS)NC(=O)[C@H](Cc1cnc[nH]1)NC(=O)[C@@H]1CCCN1C(=O)[C@H](Cc1cnc[nH]1)NC(=O)[C@H](Cc1c[nH]c2ccccc12)NC(=O)[C@H](CCCNC(=N)N)NC(=O)[C@H](CS)NC(=O)[C@H](CCC(N)=O)NC(=O)[C@H](Cc1ccccc1)NC(=O)[C@H](Cc1ccc(O)cc1)NC(=O)[C@H](CO)NC(=O)[C@H](C)NC(=O)[C@@H]1CCCN1C(=O)[C@@H](N)CS)C(=O)N[C@@H](CC(=O)O)C(=O)NCC(=O)N[C@@H](CO)C(=O)N[C@@H](CC(=O)O)C(=O)N[C@@H](CCC(=O)O)C(=O)N[C@@H](CCC(=O)O)C(=O)N[C@@H](CO)C(=O)N[C@@H](CS)C(=O)NCC(=O)NCC(=O)NCC(=O)NCC(=O)O (H-CPASYFQCRWHPHCYPMEWRCDGFPDCIDGSDEESCGGGG-OH) | Active | Active | 0.8 to 3 nM
CC[C@H](C)[C@H](NC(=O)[C@H](CS)NC(=O)[C@H](CC(=O)O)NC(=O)[C@@H]1CCCN1C(=O)[C@H](Cc1ccccc1)NC(=O)CNC(=O)[C@H](CC(=O)O)NC(=O)[C@H](CS)NC(=O)[C@H](CCCNC(=N)N)NC(=O)[C@H](Cc1c[nH]c2ccccc12)NC(=O)[C@H](CCC(=O)O)NC(=O)[C@H](CCSC)NC(=O)[C@@H]1CCCN1C(=O)[C@H](Cc1ccc(O)cc1)NC(=O)[C@H](CS)NC(=O)[C@H](Cc1cnc[nH]1)NC(=O)[C@@H]1CCCN1C(=O)[C@H](Cc1cnc[nH]1)NC(=O)[C@H](CC(N)=O)NC(=O)[C@H](CCCNC(=N)N)NC(=O)[C@H](CS)NC(=O)[C@@H]1CCCN1C(=O)[C@H](Cc1ccccc1)NC(=O)[C@H](Cc1ccc(O)cc1)NC(=O)[C@@H](NC(=O)[C@H](C)NC(=O)[C@@H]1CCCN1C(=O)[C@@H](N)CS)[C@@H](C)O)C(=O)N[C@@H](CC(=O)O)C(=O)N[C@@H](CCC(=O)O)C(=O)N[C@@H](CO)C(=O)N[C@@H](CC(=O)O)C(=O)N[C@@H](CCC(=O)O)C(=O)N[C@@H](CCSC)C(=O)NCC(=O)N[C@@H](CS)C(=O)NCC(=O)NCC(=O)NCC(=O)NCC(=O)O (H-CPATYFPCRNHPHCYPMEWRCDGFPDCIDESDEMGCGGGG-OH) | Active | Active | 0.8 to 3 nM

The next lines start with the values.

inhibition [1] | inhibition [2] | IC50 [3] | SMILES
Active | Active | 0.8 to 3 nM | CSCC[C@H](NC(=O)[C@@H]1CCCN1C(=O)[C@H](Cc1ccc(O)cc1)NC(=O)[C@H](CS)NC(=O)[C@H](Cc1cnc[nH]1)NC(=O)[C@@H]1CCCN1C(=O)[C@H](Cc1cnc[nH]1)NC(=O)[C@H](Cc1ccc(O)cc1)NC(=O)[C@H](CCCNC(=N)N)NC(=O)[C@H](CS)NC(=O)[C@H](CCCCN)NC(=O)[C@H](Cc1ccccc1)NC(=O)[C@H](Cc1ccc(O)cc1)NC(=O)[C@H](CO)NC(=O)[C@H](C)NC(=O)[C@@H]1CCCN1C(=O)[C@@H](N)CS)C(=O)N[C@@H](CCC(=O)O)C(=O)N[C@@H](Cc1c[nH]c2ccccc12)C(=O)N[C@@H](CCCNC(=N)N)C(=O)N[C@@H](CS)C(=O)N[C@@H](CC(=O)O)C(=O)NCC(=O)N[C@@H](Cc1ccccc1)C(=O)N[C@@H](CO)C(=O)N[C@@H](CC(=O)O)C(=O)N[C@@H](CS)C(=O)N[C@H](C(=O)N[C@@H](CC(=O)O)C(=O)NCC(=O)N[C@@H](CO)C(=O)N[C@@H](CC(=O)O)C(=O)N[C@@H](CCC(=O)O)C(=O)N[C@@H](CCC(=O)O)C(=O)N[C@@H](C)C(=O)N[C@@H](CS)C(=O)NCC(=O)NCC(=O)NCC(=O)NCC(=O)O)C(C)C (H-CPASYFKCRYHPHCYPMEWRCDGFSDCVDGSDEEACGGGG-OH)
Active | Active | 0.8 to 3 nM | CSCC[C@H](NC(=O)[C@@H]1CCCN1C(=O)[C@H](Cc1ccc(O)cc1)NC(=O)[C@H](CS)NC(=O)[C@H](Cc1cnc[nH]1)NC(=O)[C@@H]1CCCN1C(=O)[C@H](Cc1cnc[nH]1)NC(=O)[C@H](CCCNC(=N)N)NC(=O)[C@H](CCCNC(=N)N)NC(=O)[C@H](CS)NC(=O)[C@H](CCC(N)=O)NC(=O)[C@H](Cc1ccccc1)NC(=O)[C@H](Cc1ccc(O)cc1)NC(=O)[C@H](CO)NC(=O)[C@H](C)NC(=O)[C@@H]1CCCN1C(=O)[C@@H](N)CS)C(=O)N[C@@H](CCC(=O)O)C(=O)N[C@@H](Cc1c[nH]c2ccccc12)C(=O)N[C@@H](CCCNC(=N)N)C(=O)N[C@@H](CS)C(=O)N[C@@H](CC(=O)O)C(=O)NCC(=O)N[C@@H](Cc1ccccc1)C(=O)N1CCC[C@H]1C(=O)N[C@@H](CC(=O)O)C(=O)N[C@@H](CS)C(=O)N[C@@H](CC(C)C)C(=O)N[C@@H](CC(=O)O)C(=O)NCC(=O)N[C@@H](CO)C(=O)N[C@@H](CC(=O)O)C(=O)N[C@@H](CCC(=O)O)C(=O)N[C@@H](CCC(=O)O)C(=O)NCC(=O)N[C@@H](CS)C(=O)NCC(=O)NCC(=O)NCC(=O)NCC(=O)O (H-CPASYFQCRRHPHCYPMEWRCDGFPDCLDGSDEEGCGGGG-OH)
Active | Active | 0.8 to 3 nM | CSCC[C@H](NC(=O)[C@@H]1CCCN1C(=O)[C@H](Cc1ccc(O)cc1)NC(=O)[C@H](CS)NC(=O)[C@H](Cc1cnc[nH]1)NC(=O)[C@@H]1CCCN1C(=O)[C@H](Cc1cnc[nH]1)NC(=O)[C@H](CC(N)=O)NC(=O)[C@H](CCCNC(=N)N)NC(=O)[C@H](CS)NC(=O)[C@H](CCCNC(=N)N)NC(=O)[C@H](Cc1ccccc1)NC(=O)[C@H](Cc1ccc(O)cc1)NC(=O)[C@H](CO)NC(=O)[C@H](C)NC(=O)[C@@H]1CCCN1C(=O)[C@@H](N)CS)C(=O)N[C@@H](CCC(=O)O)C(=O)N[C@@H](Cc1c[nH]c2ccccc12)C(=O)N[C@@H](CCCNC(=N)N)C(=O)N[C@@H](CS)C(=O)N[C@@H](CC(=O)O)C(=O)NCC(=O)N[C@@H](Cc1ccccc1)C(=O)N[C@@H](CCC(=O)O)C(=O)N[C@@H](CC(=O)O)C(=O)N[C@@H](CS)C(=O)N[C@H](C(=O)N[C@@H](CC(=O)O)C(=O)NCC(=O)N[C@@H](CO)C(=O)N[C@@H](CC(=O)O)C(=O)N[C@@H](CCC(=O)O)C(=O)N[C@@H](CC(C)C)C(=O)N[C@@H](CC(=O)O)C(=O)N[C@@H](CS)C(=O)NCC(=O)NCC(=O)NCC(=O)NCC(=O)O)C(C)C (H-CPASYFRCRNHPHCYPMEWRCDGFEDCVDGSDELDCGGGG-OH)
